The test concerns C3H kidney allografts in pre-sensitized B6 recipients. As to the kind of experiment: Pre-sensitized mouse kidney allograft model, RAPA / CFH / FK506, graft survival (Example 2). In kind it is in vivo. The source says: Male C3H (H-2k) and C57BL/6 (B6, H-2b) mice (25-30 g) were used to determine the efficacy of Rapamycin (RAPA) in combination with Factor H (FH) during transplant rejection. C3H mice served as skin graft and kidney donors for pre-sensitization and kidney transplantation. Male C57BL/c (B6) mice were used as recipients. The B6 recipients were pre-sensitized by transplantation of the donor skin grafts, and were subsequently transplanted with kidney allografts between 15 and 20 days after the skin transplantation. […]
Mice were monitored daily for signs of rejection and were euthanized at the end point of the experiment, which was defined as when transplants developed functional deterioration due to severe rejection or on POD60 and POD100. Renal graft function was monitored by plasma creatinine (Cr) blood urea nitrogen (BUN) and hematocrit (Hct) levels by an I-Stat potable analyzer (Abaxis). Circulating donor specific antibodies (DSAs) were determined prior to kidney transplantation and at the endpoint of study by flow cytometry.

Consider one compound from patent publication US9138466B2, “Factor H for transplantation” (Baxter International Inc., priority 2013, dated 2015).

Each structure is given as a SMILES string. Several values for one entry are separate records, joined by “and”; a condition that tells them apart may be missing. Equal values may be shown once.

For `CO[C@H]1C[C@@H]2CC[C@@H](C)[C@@](O)(O2)C(=O)C(=O)N2CCCC[C@H]2C(=O)O[C@H]([C@H](C)C[C@@H]2CC[C@@H](O)[C@H](OC)C2)CC(=O)[C@H](C)/C=C(\C)[C@@H](O)[C@@H](OC)C(=O)[C@H](C)C[C@H](C)/C=C/C=C/C=C/1C` [RAPA Alone, Rapamycin], the “Survival” value (individual grafts, pre-sensitized kidney transplant model) was 8 days (2×) and 37 days and 10 days and 11 days and 12 days and 22 days and 14 days and 16 days and 20 days. Also, the “MST (mean survival time)” value (per cohort, untreated controls 8 days) turned out to be 14 days.
